Six substances from PMC3066212, “Functional Divergence among Silkworm Antimicrobial Peptide Paralogs by the Activities of Recombinant Proteins and the Induced Expression Profiles” (PLoS ONE, 2011) can be followed below.

Assay [1] deals with R. dolaanacearum. The format is cell-based, Ralstonia dolaanacearum.
Assay [2] relates to ten tested bacteria (five Gram-positive, five Gram-negative). The assay is described as follows: Ultrasensitive radial diffusion, antimicrobial spectrum. The format is cell-based. The settings on record: 5 µmol/L, 10 µL in 2.7 mm pore on LB-medium plates, 37°C 24 h, n = 3 (Fig. 3).
The subject of assay [3] is S. aureus. The assay is described as follows: Ultrasensitive radial diffusion. Format: cell-based, Staphylococcus aureus. The following applies: 5 µmol/L, 10 µL, 37°C 24 h (Fig. 3). As for the experimental part: Figure 3 The antimicrobial spectrum of paralogs among each AMP gene family. The following microbes were used to test antimicrobial activities: Gram-positive bacteria: S. aureus (Sa), B. bombysepticus (Bb), B. subtilis (Bs), B. thuringiensis (Bt), B. thuringiensis subsp. galleriae (Btsg); Gram-negative bacteria: E. coli (Ec), S. marcescens (Sm), P. aeruginosa (Pa), X. pv. campestris (Xpc), R. dolaanacearum (Rd). Each sample (5 µmol/L, 10 µL) was dropped into the 2.7 mm pore on LB-medium plates and incubated at 37°C for 24 h as shown in Figure S3 for moricin family. The measure unit is millimeter (mm). […] Differences were significant at *P<0.01 among each recombinant AMP family.
B. mori strain Dazao was from the Sericulture & Agri-Food Research Institute, Guangdong Academy of Agricultural Sciences, China. E. coli Rosetta™(DE3) strain was used to express recombinant AMPs. […]
Antimicrobial activity of purified expression products was assayed using the ultrasensitive radial diffusion method and the MICs method seeded with Gram-negative or Gram-positive bacteria. […] The size of the clear area around the bacteria was measured, as shown in Figure S3 for the moricin family. […] Absorbance at 595 nm was measured and was repeated three times, and the MICs determined when the average absorbance was equal to the control sample.

In assay [4] the test system is X. pv. campestris. The assay is described as follows: Ultrasensitive radial diffusion. Format: cell-based, Xanthomons pv. campestris. The settings on record: 5 µmol/L, 10 µL, 37°C 24 h (Fig. 3).

As for “MDFLKYFIVVLVALSLMVCSGQADPKIP--VKSLKKGGKIIAKGFKVLTAAGTAHEVYSHVRNRGNQG [BmmorLA1, recombinant silkworm moricin-like A1, two extra N-terminal residues (Ala-Met)]”, in assay [1], the “Minimal growth inhibition concentration (MIC), R. dolaanacearum” value worked out at 1.25 µM.
Take “MNFAKILSFVFALVLALSMTSAAPEPRWKIFKKIEKMGRNIRDGIVKAGPAIEVLGSAKAIGK [BmcecB6, recombinant silkworm cecropin paralog representing B subtype, two extra N-terminal residues (Ala-Met)]”: the “antimicrobial spectrum among the ten tested bacteria” value in assay [2] was “eight of ten tested bacteria”. Also, in assay [3], the “antimicrobial activity against S. aureus” value is recorded as “not inhibited”. For the same substance, the “antimicrobial activity against X. pv. campestris” value in assay [4] is “not inhibited”.
For the substance “MNFSRALFYVFAVFLVCASVMAAPEPRWKIFKKIEKVGQNIRDGIIKAGPAVAVVGQAATIAHGK [BmcecE, recombinant silkworm cecropin paralog, E subtype, two extra N-terminal residues (Ala-Met)]”, in assay [2], the “antimicrobial spectrum among the ten tested bacteria” value is given as “five of ten tested bacteria”.
Same read-out and setting: the result for “MNFVKILCVVLALMLALSMASAALEPKRKVFKIIEKIGRNVRGGVITAGPAVVVVGQAASVGM [BmcecC, recombinant silkworm cecropin paralog, C subtype, two extra N-terminal residues (Ala-Met)]” reads “no ability to inhibit the growth”.
Turning to “MNFVRILSFVFALVLALGAVSAAPEPRWKLFKKIEKVGRNVRDGLIKAGPAIAVIGQAKSLGK [BmcecA1, recombinant silkworm cecropin paralog, A subtype, EK-digested, two extra N-terminal residues (Ala-Met)]”, the “antimicrobial spectrum among the ten tested bacteria” value in assay [2] was “five of ten tested bacteria”.
“MNILKLFLVFMVAMSLVSCSTAAPAKIP--IKAIKTVGKAVGKGLRAINIASTANDVFNFLKPKKRKH [Bmmor, recombinant silkworm moricin, two extra N-terminal residues (Ala-Met)]”: the “Minimal growth inhibition concentration (MIC), R. dolaanacearum” value in assay [1] was found to be 1.25 µM. Besides, in assay [2], the “antimicrobial spectrum among the ten tested bacteria” value is reported as “nine of ten tested bacteria”.
